{
  "source": "patent US11291756B2",
  "about": "“Acoustic separation for bioprocessing” (THE CHARLES STARK DRAPER LABORATORY, INC., priority 2016, dated 2022)",
  "assay_type_in_all_cases": "cell-based",
  "key": {"[1]": {"tested_on": "platelets", "assay": "Platelet aggregate size produced by ADP", "conditions": "10 μM ADP"}, "[2]": {"tested_on": "platelets", "assay": "Acoustic separation of platelets from lymphocytes in a blood sample pretreated with a platelet activator", "conditions": "adenosine diphosphate 2-50 μM, incubated 10-20 minutes", "description": "A blood sample comprising lymphocytes and platelets was subjected to acoustic energy, generally as described above. Prior to flowing the blood sample through a microfluidic separation channel, the blood sample was pretreated by diluting with an additive comprising a platelet activator, adenosine diphosphate. Adenosine diphosphate was added at a concentration of 2-50 μM. The samples were incubated for 10-20 minutes before starting the acoustic separation."}, "[3]": {"tested_on": "platelets", "assay": "Acoustic separation of platelets from lymphocytes in blood buffy coat samples pretreated with a platelet activator", "description": "Blood buffy coat samples from 3 donors (comprising lymphocytes and platelets) were subjected to acoustic energy, generally as described above. Prior to flowing the blood buffy coat samples through a microfluidic separation channel, the blood buffy coat samples were pretreated. Experimental samples were treated with 8 μM adenosine diphosphate (ADP) in buffer and control samples were treated with buffer only to a final dilution of approximately 1:3 buffy coat:buffer (about 10^9 cells/ml). The samples were incubated for 5 min before separation. The samples were flowed at 0.1 ml/min through a single polystyrene microchannel mounted on an oscillator using the methods described herein. The acoustic force displaced larger and more dense cells and platelet cell aggregates toward a center outlet (waste) while side outlets collected the lymphocyte-enriched product, generally as shown in FIG. 15. The products were compared to the input solution using both a hematology analyzer (Sysmex Corporation, Kobe, Hyogo Prefecture, Japan) to count cells and ELISA of the platelet-specific glycoprotein IIb/IIIa."}},
  "data": [
    {"smiles": "Nc1ncnc2c1ncn2[C@@H]1O[C@H](COP(=O)(O)OP(=O)(O)O)[C@@H](O)[C@H]1O", "note": "[ADP, adenosine diphosphate]", "values": [
      {"measurement": "diameter of platelet aggregates", "setting": "[1]", "value": "about 10 μm"},
      {"measurement": "response of platelets to the acoustic field", "setting": "[2]", "value": "responded more strongly to the acoustic field than individual platelets"},
      {"measurement": "platelet content by glycoprotein IIb/IIIa assay (ELISA)", "setting": "[3]; ADP 8 μM", "value": "significantly reduced platelet content"},
      {"measurement": "reduction of platelet count in the product versus control", "setting": "[3]; ADP 8 μM", "value": "nearly ten-fold"},
      {"measurement": "decrease of platelet count in the product compared to the starting material", "setting": "[3]; ADP 8 μM in buffer, 5 min incubation, buffy coat from 3 donors, hematology analyzer, buffer control 274% increase", "value": 69, "unit": "%"},
      {"measurement": "hematocrit of product", "setting": "[3]; ADP 8 μM, depleted from 10%", "value": 4.5, "unit": "%"},
      {"measurement": "platelet depletion on increasing the concentration", "setting": "[3]; ADP 32 μM versus 8 μM", "value": "did not further improve platelet depletion"},
      {"measurement": "platelet contamination in the collected lymphocytes compared to controls", "setting": "[3]; ADP versus buffer-only controls", "value": "strongly reduced platelet contamination"},
      {"measurement": "increase of lymphocyte purity", "setting": "[3]; with or without ADP added, input 41% to output 84%", "value": 104, "unit": "%"},
      {"measurement": "lymphocyte output purity", "setting": "[3]; with or without ADP added, input purity 41%", "value": 84, "unit": "% WBC"}
    ]}
  ]
}
